Laboratory results from ChEMBL document CHEMBL5614428, “Synthesis and antibacterial activities of heterocyclic ring-fused 20(S)-protopanaxadiol derivatives” (Bioorg Med Chem, 2024).
Converted amounts (≈) assume the structure as drawn.

Columns and labels:
Type in all cases: functional
[1] = system: Staphylococcus aureus; test: Antibacterial activity against methicillin-resistant Staphylococcus aureus XJ036 assessed as inhibition of bacterial growth incubated for 18 hrs by two fold serial dilution assay
[2] = system: Staphylococcus aureus; test: Antibacterial activity against methicillin-resistant Staphylococcus aureus NRS-271 assessed as inhibition of bacterial growth incubated for 18 hrs by two fold serial dilution assay
[3] = system: Staphylococcus aureus; test: Antibacterial activity against methicillin-resistant Staphylococcus aureus XJ017 assessed as inhibition of bacterial growth incubated for 18 hrs by two fold serial dilution assay
[4] = system: Staphylococcus aureus; test: Antibacterial activity against methicillin-resistant Staphylococcus aureus NRS-70 assessed as inhibition of bacterial growth incubated for 18 hrs by two fold serial dilution assay
[5] = system: Staphylococcus aureus; test: Antibacterial activity against methicillin-resistant Staphylococcus aureus NRS-108 assessed as inhibition of bacterial growth incubated for 18 hrs by two fold serial dilution assay
[6] = system: Staphylococcus aureus; test: Antibacterial activity against methicillin-resistant Staphylococcus aureus NRS-100 assessed as inhibition of bacterial growth incubated for 18 hrs by two fold serial dilution assay
[7] = system: Staphylococcus aureus; test: Antibacterial activity against methicillin-resistant Staphylococcus aureus USA300 assessed as inhibition of bacterial growth incubated for 18 hrs by two fold serial dilution assay
[8] = system: Staphylococcus aureus; test: Antibacterial activity against Staphylococcus aureus Newman assessed as inhibition of bacterial growth incubated for 18 hrs by two fold serial dilution assay
[9] = system: Staphylococcus aureus; test: Antibacterial activity against methicillin-resistant Staphylococcus aureus NRS-1 assessed as inhibition of bacterial growth incubated for 18 hrs by two fold serial dilution assay

Row | SMILES | MIC [1] [µg/mL] | MIC [2] [µg/mL] | MIC [3] [µg/mL] | MIC [4] [µg/mL] | MIC [5] [µg/mL] | MIC [6] [µg/mL] | MIC [7] [µg/mL] | MIC [8] [µg/mL] | MIC [9] [µg/mL]
1 | CC1(C)S[C@@H]2[C@H](NC(=O)[C@H](N)c3ccccc3)C(=O)N2[C@H]1C(=O)O [AMPICILLIN] | 8 (≈ 22.9 µM) | 4 (≈ 11.4 µM) | 32 (≈ 91.6 µM) | 8 (≈ 22.9 µM) | 2 (≈ 5.72 µM) | 0.063 (≈ 0.18 µM) |  |  | 
2 | CC1(C)c2nc3ccccc3cc2C[C@]2(C)[C@H]3C[C@@H](O)[C@@H]4[C@@H]([C@@](C)(O)CCCO)CC[C@@]4(C)[C@]3(C)CC[C@@H]12 |  |  |  |  |  |  | > 64 | 2 (≈ 3.85 µM) | 
3 | COc1ccc(NC(=O)CC[C@](C)(O)[C@H]2CC[C@]3(C)[C@@H]2[C@H](O)C[C@@H]2[C@@]4(C)Cc5nc6ccccc6nc5C(C)(C)[C@@H]4CC[C@]23C)cc1 |  |  |  |  |  |  | > 64 | > 64 | 
4 | CC1(C)c2c(cnc3cccn23)C[C@]2(C)[C@H]3C[C@@H](O)[C@@H]4[C@@H]([C@@](C)(O)CCCO)CC[C@@]4(C)[C@]3(C)CC[C@@H]12 |  |  |  |  |  |  | > 64 | 4 (≈ 7.86 µM) | 
5 | CC1(C)c2nc3ccccc3nc2C[C@]2(C)[C@H]3C[C@@H](O)[C@@H]4[C@@H]([C@@](C)(O)CCC(=O)O)CC[C@@]4(C)[C@]3(C)CC[C@@H]12 |  |  |  |  |  |  | 16 (≈ 29.9 µM) | 16 (≈ 29.9 µM) | 
6 | CC1(C)c2nccnc2C[C@]2(C)[C@H]3C[C@@H](O)[C@@H]4[C@@H]([C@@](C)(O)CCCO)CC[C@@]4(C)[C@]3(C)CC[C@@H]12 |  |  |  |  |  |  | > 64 | > 64 | 
7 | CC1(C)c2nc3ccccc3nc2C[C@]2(C)[C@H]3C[C@@H](O)[C@@H]4[C@@H]([C@]5(C)CCC(=O)O5)CC[C@@]4(C)[C@]3(C)CC[C@@H]12 |  |  |  |  |  |  | 8 (≈ 15.5 µM) | 4 (≈ 7.74 µM) | 
8 | CC1(C)c2ncncc2C[C@]2(C)[C@H]3C[C@@H](O)[C@@H]4[C@@H]([C@@](C)(O)CCCO)CC[C@@]4(C)[C@]3(C)CC[C@@H]12 |  |  |  |  |  |  | > 64 | > 64 | 
9 | CC(C)=CCC[C@](C)(O)[C@H]1CC[C@]2(C)[C@@H]1[C@H](O)C[C@@H]1[C@@]3(C)Cc4nc5ccccc5nc4C(C)(C)[C@@H]3CC[C@]12C |  |  |  |  |  |  | > 64 | > 64 | 
10 | CC1(C)c2[nH]c3ccccc3c2C[C@]2(C)[C@H]3C[C@@H](O)[C@@H]4[C@@H]([C@@](C)(O)CCCO)CC[C@@]4(C)[C@]3(C)CC[C@@H]12 |  |  |  |  |  |  | 32 (≈ 63 µM) | 4 (≈ 7.88 µM) | 
11 | Cc1nc2c(o1)C(C)(C)[C@@H]1CC[C@]3(C)[C@H](C[C@@H](O)[C@@H]4[C@@H]([C@@](C)(O)CCCO)CC[C@]43C)[C@@]1(C)C2 |  |  |  |  |  |  | > 64 | > 64 | 
12 | CC1(C)c2nc3ccccc3nc2C[C@]2(C)[C@H]3C[C@@H](O)[C@@H]4[C@@H]([C@]5(C)CCCO5)CC[C@@]4(C)[C@]3(C)CC[C@@H]12 |  |  |  |  |  |  | > 64 | > 64 | 
13 | CC1(C)c2nc3ccccc3nc2C[C@]2(C)[C@H]3C[C@@H](O)[C@@H]4[C@@H]([C@@](C)(O)CCC(=O)Nc5cccnc5)CC[C@@]4(C)[C@]3(C)CC[C@@H]12 | 4 (≈ 6.55 µM) | 16 (≈ 26.2 µM) | 16 (≈ 26.2 µM) | 8 (≈ 13.1 µM) | 8 (≈ 13.1 µM) | 8 (≈ 13.1 µM) | 4 (≈ 6.55 µM) | 2 (≈ 3.27 µM) | > 64
14 | CC1(C)c2nc3ccccc3nc2C[C@]2(C)[C@H]3C[C@@H](O)[C@@H]4[C@@H]([C@@](C)(O)CCC(=O)Nc5ncc[nH]5)CC[C@@]4(C)[C@]3(C)CC[C@@H]12 | 4 (≈ 6.67 µM) | 2 (≈ 3.33 µM) | 2 (≈ 3.33 µM) | 1 (≈ 1.67 µM) | 2 (≈ 3.33 µM) | 8 (≈ 13.3 µM) | 2 (≈ 3.33 µM) | 2 (≈ 3.33 µM) | 8 (≈ 13.3 µM)
15 | COC(=O)CC[C@](C)(O)[C@H]1CC[C@]2(C)[C@@H]1[C@H](O)C[C@@H]1[C@@]3(C)Cc4nc5ccccc5nc4C(C)(C)[C@@H]3CC[C@]12C |  |  |  |  |  |  | > 64 | > 64 | 
16 | CC1(C)c2nc3ccccc3nc2C[C@]2(C)[C@H]3C[C@@H](O)[C@@H]4[C@@H]([C@@](C)(O)CCCO)CC[C@@]4(C)[C@]3(C)CC[C@@H]12 |  |  |  |  |  |  | 8 (≈ 15.4 µM) | 4 (≈ 7.68 µM) | 

Row | SMILES | MIC [1] [µg/mL] | MIC [2] [µg/mL] | MIC [3] [µg/mL] | MIC [4] [µg/mL] | MIC [5] [µg/mL] | MIC [6] [µg/mL] | MIC [7] [µg/mL] | MIC [8] [µg/mL] | MIC [9] [µg/mL]
17 | CC1(C)c2nc3ccccc3nc2C[C@]2(C)[C@H]3C[C@@H](O)[C@@H]4[C@@H]([C@@](C)(O)CCC(=O)NC5CCCCC5)CC[C@@]4(C)[C@]3(C)CC[C@@H]12 |  |  |  |  |  |  | > 64 | > 64 | 
18 | CCCNC(=O)CC[C@](C)(O)[C@H]1CC[C@]2(C)[C@@H]1[C@H](O)C[C@@H]1[C@@]3(C)Cc4nc5ccccc5nc4C(C)(C)[C@@H]3CC[C@]12C |  |  |  |  |  |  | > 64 | > 64 | 
19 | CC1(C)c2nc3ccccc3nc2C[C@]2(C)[C@H]3C[C@@H](O)[C@@H]4[C@@H]([C@@](C)(O)CCC(=O)Nc5ccc(C(F)(F)F)cc5)CC[C@@]4(C)[C@]3(C)CC[C@@H]12 |  |  |  |  |  |  | > 64 | > 64 | 
20 | CNC(=O)CC[C@](C)(O)[C@H]1CC[C@]2(C)[C@@H]1[C@H](O)C[C@@H]1[C@@]3(C)Cc4nc5ccccc5nc4C(C)(C)[C@@H]3CC[C@]12C | 8 (≈ 14.6 µM) | 8 (≈ 14.6 µM) | 16 (≈ 29.2 µM) | 4 (≈ 7.3 µM) | 4 (≈ 7.3 µM) | 8 (≈ 14.6 µM) | 4 (≈ 7.3 µM) | 4 (≈ 7.3 µM) | 4 (≈ 7.3 µM)
21 | CC1(C)c2nc(N)sc2C[C@]2(C)[C@H]3C[C@@H](O)[C@@H]4[C@@H]([C@@](C)(O)CCCO)CC[C@@]4(C)[C@]3(C)CC[C@@H]12 |  |  |  |  |  |  | > 64 | 16 (≈ 32.6 µM) | 
22 | CN(C)C(=O)CC[C@](C)(O)[C@H]1CC[C@]2(C)[C@@H]1[C@H](O)C[C@@H]1[C@@]3(C)Cc4nc5ccccc5nc4C(C)(C)[C@@H]3CC[C@]12C | 8 (≈ 14.2 µM) | 4 (≈ 7.12 µM) | > 64 | 4 (≈ 7.12 µM) | 4 (≈ 7.12 µM) | 8 (≈ 14.2 µM) | 4 (≈ 7.12 µM) | 4 (≈ 7.12 µM) | 4 (≈ 7.12 µM)
23 | CCNC(=O)CC[C@](C)(O)[C@H]1CC[C@]2(C)[C@@H]1[C@H](O)C[C@@H]1[C@@]3(C)Cc4nc5ccccc5nc4C(C)(C)[C@@H]3CC[C@]12C | 4 (≈ 7.12 µM) | 4 (≈ 7.12 µM) | 8 (≈ 14.2 µM) | 4 (≈ 7.12 µM) | 4 (≈ 7.12 µM) | 4 (≈ 7.12 µM) | 4 (≈ 7.12 µM) | 4 (≈ 7.12 µM) | > 64
24 | CC1(C)c2nc3ccccc3nc2C[C@]2(C)[C@H]3C[C@@H](O)[C@@H]4[C@@H]([C@@](C)(O)CCC(=O)NC5CCCC5)CC[C@@]4(C)[C@]3(C)CC[C@@H]12 |  |  |  |  |  |  | > 64 | > 64 | 
25 | CC1(C)c2nc3ccccc3nc2C[C@]2(C)[C@H]3C[C@@H](O)[C@@H]4[C@@H]([C@@](C)(O)CCC(=O)Nc5cnccn5)CC[C@@]4(C)[C@]3(C)CC[C@@H]12 | 4 (≈ 6.54 µM) | 8 (≈ 13.1 µM) | 16 (≈ 26.2 µM) | 4 (≈ 6.54 µM) | 4 (≈ 6.54 µM) | 4 (≈ 6.54 µM) | 2 (≈ 3.27 µM) | 2 (≈ 3.27 µM) | > 64
26 | CC1(C)c2nc3ccccc3nc2C[C@]2(C)[C@H]3C[C@@H](O)[C@@H]4[C@@H]([C@@](C)(O)CCC(=O)Nc5ccccc5)CC[C@@]4(C)[C@]3(C)CC[C@@H]12 |  |  |  |  |  |  | > 64 | > 64 | 
27 | CCCCNC(=O)CC[C@](C)(O)[C@H]1CC[C@]2(C)[C@@H]1[C@H](O)C[C@@H]1[C@@]3(C)Cc4nc5ccccc5nc4C(C)(C)[C@@H]3CC[C@]12C |  |  |  |  |  |  | > 64 | > 64 | 
28 | C[C@H]1COc2c(N3CCN(C)CC3)c(F)cc3c(=O)c(C(=O)O)cn1c23 [LEVOFLOXACIN ANHYDROUS] | 32 (≈ 88.6 µM) | 4 (≈ 11.1 µM) | 64 (≈ 177 µM) | 0.125 (≈ 0.346 µM) | 0.125 (≈ 0.346 µM) | 0.125 (≈ 0.346 µM) |  |  | 16 (≈ 44.3 µM)
29 | CC1(C)c2nc3ccccc3nc2C[C@]2(C)[C@H]3C[C@@H](O)[C@@H]4[C@@H]([C@@](C)(O)CCC(=O)Nc5ccc6ncsc6c5)CC[C@@]4(C)[C@]3(C)CC[C@@H]12 |  |  |  |  |  |  | > 64 | > 64 | 
30 | CC1(C)c2nc3ccccc3nc2C[C@]2(C)[C@H]3C[C@@H](O)[C@@H]4[C@@H]([C@@](C)(O)CCC(=O)Nc5ccc6nccnc6c5)CC[C@@]4(C)[C@]3(C)CC[C@@H]12 |  |  |  |  |  |  | > 64 | > 64 | 
31 | CC1(C)c2nc(N)ncc2C[C@]2(C)[C@H]3C[C@@H](O)[C@@H]4[C@@H]([C@@](C)(O)CCCO)CC[C@@]4(C)[C@]3(C)CC[C@@H]12 |  |  |  |  |  |  | 32 (≈ 65.9 µM) | 16 (≈ 32.9 µM) | 
32 | CC1(C)c2oncc2C[C@]2(C)[C@H]3C[C@@H](O)[C@@H]4[C@@H]([C@@](C)(O)CCCO)CC[C@@]4(C)[C@]3(C)CC[C@@H]12 |  |  |  |  |  |  | > 64 | > 64 | 
